The record followed here is ChEMBL document CHEMBL1150318, “Discovery of a novel, orally active himbacine-based thrombin receptor antagonist (SCH 530348) with potent antiplatelet activity” (J Med Chem, 2008).

The target in series [1] is T1, Proteinase-activated receptor 1 (Homo sapiens, UniProt P25116).
T1 sequence (P25116 whole entry): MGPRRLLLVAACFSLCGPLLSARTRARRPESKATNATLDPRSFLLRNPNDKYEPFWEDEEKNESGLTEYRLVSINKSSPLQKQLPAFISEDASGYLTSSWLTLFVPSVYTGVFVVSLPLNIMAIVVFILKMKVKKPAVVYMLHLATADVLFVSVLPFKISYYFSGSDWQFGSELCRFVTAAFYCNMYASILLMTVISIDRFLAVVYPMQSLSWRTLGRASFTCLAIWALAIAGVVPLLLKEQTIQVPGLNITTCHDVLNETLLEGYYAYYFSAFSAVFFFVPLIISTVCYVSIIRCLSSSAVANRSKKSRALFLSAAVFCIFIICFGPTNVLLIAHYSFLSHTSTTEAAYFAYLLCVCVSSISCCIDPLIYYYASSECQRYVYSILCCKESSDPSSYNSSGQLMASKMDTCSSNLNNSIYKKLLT
Description: Displacement of [3H]haTRAP from PAR1 in human platelets. A general note: Displacement assays read how much labelled ligand stays bound in the presence of the test substance.

For series [2], the system named is Platelet. The series is described as follows: Ex vivo inhibition of haTRAP-induced platelet aggregation in cynomolgus monkey at 1 mg/kg, po after 24 hrs by impedance aggregometry. It counts as functional. The note with it: Macaca fascicularis.
Series [3] is described as follows: AUC (0 to 24 hrs) in cynomolgus monkey at 1 mg/kg, po after 24 hrs. It counts as ADME, organism-based, Macaca fascicularis. Further details: time < 24 hr, dose 1 mg/kg, route oral. The settings on record: plasma.
Series [4] is described as follows: Cmax in cynomolgus monkey at 1 mg/kg, po after 24 hrs. It counts as ADME, organism-based, Macaca fascicularis. Further details: dose 1 mg/kg, route oral. The note with it: in vivo.
Series [5] relates to Platelet. The series is described as follows: Ex vivo inhibition of haTRAP-induced platelet aggregation in cynomolgus monkey at 0.1 mg/kg, po after 24 hrs by impedance aggregometry. In kind it is functional. The note with it: Macaca fascicularis.
The nature of series [6]: AUC (0 to 24 hrs) in cynomolgus monkey at 0.1 mg/kg, po after 24 hrs. It counts as ADME, organism-based, Macaca fascicularis. Further details: time < 24 hr, dose 0.1 mg/kg, route oral. The settings on record: plasma.
The nature of series [7]: Cmax in cynomolgus monkey at 0.1 mg/kg, po after 24 hrs. In kind it is ADME, organism-based, Macaca fascicularis. Further details: dose 0.1 mg/kg, route oral. The settings on record: in vivo.
Series [8] relates to Platelet. Description: Ex vivo inhibition of haTRAP-induced platelet aggregation in cynomolgus monkey at 1 mg/kg, po after 6 hrs by impedance aggregometry. The note with it: Macaca fascicularis. It counts as functional.
The test system of series [9] is Platelet. Description: Ex vivo inhibition of haTRAP-induced platelet aggregation in cynomolgus monkey at 0.5 mg/kg, po by impedance aggregometry. It counts as functional, organism-based. Further details: dose 0.5 mg/kg. The note with it: Macaca fascicularis.

SMILES strings stand for the structures. Calls of active or inactive are those of the source. No cut-off for these calls is given here.

Regarding `CCCOC(=O)N[C@@H]1CC[C@@H]2[C@@H](C1)C[C@H]1C(=O)O[C@H](C)[C@H]1[C@H]2/C=C/c1ccc(-c2cccc(F)c2)cn1`, the Ki (in general, a measure of affinity in units of concentration, obtained from inhibition or displacement) in series [1] is 17 nM. Regarding `C[C@H]1OC(=O)[C@@H]2C[C@@H]3C[C@H](NC(=O)C4CC4)CC[C@H]3[C@H](/C=C/c3ccc(-c4cccc(F)c4)cn3)[C@H]12`, in [1], the Ki was determined as 6.5 nM. Also, at 1 mg/kg the inhibition in vivo in series [2] was 100%. Further, in [3], the AUC(0-t) (usually the area under the concentration-time curve up to a stated or last time point) at 24 h turned out to be 5.53 µM·h. Further, the highest level in series [4] (Cmax) was 390 nM. For the molecule `CCNC(=O)N[C@@H]1CC[C@@H]2[C@@H](C1)C[C@H]1C(=O)O[C@H](C)[C@H]1[C@H]2/C=C/c1ccc(-c2cccc(F)c2)cn1`, the affinity in [1] corresponds to a Ki of 4.8 nM. On the same count and under the same terms, as for `CCOC(=O)N[C@@H]1CC[C@@H]2[C@@H](C1)C[C@H]1C(=O)O[C@H](C)[C@H]1[C@H]2/C=C/c1ccc(-c2cccc(Cl)c2)cn1`, the figure is 11 nM.

The molecule `CC(=O)N[C@@H]1CC[C@@H]2[C@@H](C1)C[C@H]1C(=O)O[C@H](C)[C@H]1[C@H]2/C=C/c1ccc(-c2cccc(F)c2)cn1` yielded a Ki in series [1] of 6.2 nM. On to `CCOC(=O)N[C@@H]1CC[C@@H]2[C@@H](C1)C[C@H]1C(=O)O[C@H](C)[C@H]1[C@H]2/C=C/c1ccc(-c2cccc(C(N)=O)c2)cn1`, for which the Ki in series [1] was 367 nM. For `CCC(=O)N[C@@H]1CC[C@@H]2[C@@H](C1)C[C@H]1C(=O)O[C@H](C)[C@H]1[C@H]2/C=C/c1ccc(-c2cccc(F)c2)cn1`, the Ki in [1] came out at 6.4 nM. In [2], the inhibition in vivo (usually how much of the control response was suppressed) at 1 mg/kg turned out to be 100%. The molecule further displayed an AUC(0-t) at 24 h in series [3] of 11.4 µM·h. Also, the peak level in series [4] (Cmax) was 750 nM.

Turning to `CNC(=O)N[C@@H]1CC[C@@H]2[C@@H](C1)C[C@H]1C(=O)O[C@H](C)[C@H]1[C@H]2/C=C/c1ccc(-c2cccc(F)c2)cn1`, the affinity in [1] corresponds to a Ki of 4.4 nM. In series [2], this molecule had an inhibition in vivo at 1 mg/kg of 55%. This molecule also came in with an AUC(0-t) at 24 h in series [3] of 2.63 µM·h. Further, the peak level in [4] (Cmax) was 260 nM. In series [1], `CCOC(=O)N[C@@H]1CC[C@@H]2[C@@H](C1)C[C@H]1C(=O)O[C@H](C)[C@H]1[C@H]2/C=C/c1ccc(-c2cccc(C#N)c2)cn1` came in with a Ki of 1.8 nM. In [5], the inhibition in vivo at 0.1 mg/kg amounted to 80%. Further, in [6], the AUC(0-t) at 24 h came to 2.08 µM·h. Further, the concentration in series [7] peaked (Cmax) at 200 nM. In [1], `C[C@H]1OC(=O)[C@@H]2C[C@@H]3C[C@H](N)CC[C@H]3[C@H](/C=C/c3ccc(-c4cccc(F)c4)cn3)[C@H]12` returned a Ki of 20 nM. Besides, the inhibition in vivo at 1 mg/kg in series [8] was under 40%. For the molecule `C[C@H]1OC(=O)[C@@H]2C[C@@H]3C[C@H](NS(C)(=O)=O)CC[C@H]3[C@H](/C=C/c3ccc(-c4cccc(F)c4)cn3)[C@H]12`, affinity in series [1] was put at a Ki of 11 nM. The molecule also registered an inhibition in vivo at 1 mg/kg in series [8] of under 40%. In turn, `CCOC(=O)N[C@@H]1CC[C@@H]2[C@@H](C1)C[C@H]1C(=O)O[C@H](C)[C@H]1[C@H]2/C=C/c1ccc(-c2cc(F)cc(F)c2)cn1` returned a Ki in [1] of 5.9 nM. In turn, `CCOC(=O)N[C@@H]1CC[C@@H]2[C@@H](C1)C[C@H]1C(=O)O[C@H](C)[C@H]1[C@H]2/C=C/c1ccc(-c2cccc(C)c2F)cn1` yielded a Ki in [1] of 11 nM. For the same molecule, the inhibition in vivo at 1 mg/kg in [2] stood at 100%. Also, in series [3], the area under the curve AUC(0-t) at 24 h was 0.13 µM·h. Moreover, in [4], the highest level (Cmax) was 20 nM. Regarding `C[C@H]1OC(=O)[C@@H]2C[C@@H]3C[C@H](NC(=O)OC(C)(C)C)CC[C@H]3[C@H](/C=C/c3ccc(-c4cccc(C#N)c4)cn3)[C@H]12`, in [1], affinity was put at a Ki of 44 nM. In [1], `COC(=O)N[C@@H]1CC[C@@H]2[C@@H](C1)C[C@H]1C(=O)O[C@H](C)[C@H]1[C@H]2/C=C/c1ccc(-c2cccc(F)c2)cn1` displayed a Ki of 6.1 nM.

As for `CCOC(=O)N[C@@H]1CC[C@@H]2[C@@H](C1)C[C@H]1C(=O)O[C@H](C)[C@H]1[C@H]2/C=C/c1ccc(-c2ccccc2F)cn1`, the Ki in series [1] is 11 nM. In series [5], this molecule came in with an inhibition in vivo at 0.1 mg/kg of 80%. For the same molecule, in series [6], the AUC(0-t) at 24 h was 0.2 µM·h. For the same molecule, the highest level in series [7] (Cmax) was 24 nM. For `CCOC(=O)N(C)[C@@H]1CC[C@@H]2[C@@H](C1)C[C@H]1C(=O)O[C@H](C)[C@H]1[C@H]2/C=C/c1ccc(-c2cccc(F)c2)cn1`, the Ki in series [1] came out at 4.1 nM. Also, the result in series [9] was inactive. For the molecule `CCCN(C(=O)OCC)[C@@H]1CC[C@@H]2[C@@H](C1)C[C@H]1C(=O)O[C@H](C)[C@H]1[C@H]2/C=C/c1ccc(-c2cccc(F)c2)cn1`, the Ki in [1] was found to be 89 nM. `CCOC(=O)N(C)[C@@H]1CC[C@@H]2[C@@H](C1)C[C@H]1C(=O)O[C@H](C)[C@H]1[C@H]2/C=C/c1ccc(-c2cccc(C(F)(F)F)c2)cn1` came in with a Ki in [1] of 3.7 nM.

For the molecule `C[C@H]1OC(=O)[C@@H]2C[C@@H]3C[C@H](NS(C)(=O)=O)CC[C@H]3[C@H](/C=C/c3ccc(-c4cccc(C(F)(F)F)c4)cn3)[C@H]12`, affinity in series [1] was put at a Ki of 10 nM. Turning to `CCOC(=O)N[C@@H]1CC[C@@H]2[C@@H](C1)C[C@H]1C(=O)O[C@H](C)[C@H]1[C@H]2/C=C/c1ccc(-c2cccc(OC)c2)cn1`, the Ki in series [1] was determined as 5.9 nM.

As for `CC(=O)N[C@@H]1CC[C@@H]2[C@@H](C1)C[C@H]1C(=O)O[C@H](C)[C@H]1[C@H]2/C=C/c1ccc(-c2cccc(C(F)(F)F)c2)cn1`, in [1], the inhibition constant Ki stood at 30 nM.
